Experimental findings from US10323038B2, “Pyrazole compounds and methods of making and using same” (ABIDE THERAPEUTICS, INC., priority 2015, dated 2019) are described below.

The target of one test is MAGL (Mus musculus (Mouse), UniProt O35678). Briefly: In vitro competitive activity-based protein profiling, MAGL (mouse). Format: biochemical. The note with it: for inhibition at 1 µM: read-out: MAGL % inh. 1 μM (mouse). The procedure: (§1) In Vitro Competitive Activity-Based Protein Profiling.
(§2) Proteomes (mouse brain membrane fraction or cell lysates for mouse assays; human prefrontal cortex or cell membrane fractions for human assays) (50 μL, 1.0 mg/mL total protein concentration) were preincubated with varying concentrations of inhibitors at 37° C. After 30 min, FP—Rh or HT-01 (1.0 μL, 50 μM in DMSO) was added and the mixture was incubated for another 30 min at 37° C. Reactions were quenched with SDS loading buffer (15 μL-4×) and run on SDS-PAGE. Following gel imaging, serine hydrolase activity was determined by measuring fluorescent intensity of gel bands corresponding to MAGL and FAAH using ImageJ 1.43u software.

Another test deals with FAAH (Mus musculus (Mouse), UniProt O08914). Briefly: In vitro competitive activity-based protein profiling, FAAH (mouse). The note with it: for inhibition at 1 µM: read-out: FAAH % inh. 1 μM (mouse). Format: biochemical. As for the experimental part: as §1, §2
Chain of FAAH (O08914 whole entry): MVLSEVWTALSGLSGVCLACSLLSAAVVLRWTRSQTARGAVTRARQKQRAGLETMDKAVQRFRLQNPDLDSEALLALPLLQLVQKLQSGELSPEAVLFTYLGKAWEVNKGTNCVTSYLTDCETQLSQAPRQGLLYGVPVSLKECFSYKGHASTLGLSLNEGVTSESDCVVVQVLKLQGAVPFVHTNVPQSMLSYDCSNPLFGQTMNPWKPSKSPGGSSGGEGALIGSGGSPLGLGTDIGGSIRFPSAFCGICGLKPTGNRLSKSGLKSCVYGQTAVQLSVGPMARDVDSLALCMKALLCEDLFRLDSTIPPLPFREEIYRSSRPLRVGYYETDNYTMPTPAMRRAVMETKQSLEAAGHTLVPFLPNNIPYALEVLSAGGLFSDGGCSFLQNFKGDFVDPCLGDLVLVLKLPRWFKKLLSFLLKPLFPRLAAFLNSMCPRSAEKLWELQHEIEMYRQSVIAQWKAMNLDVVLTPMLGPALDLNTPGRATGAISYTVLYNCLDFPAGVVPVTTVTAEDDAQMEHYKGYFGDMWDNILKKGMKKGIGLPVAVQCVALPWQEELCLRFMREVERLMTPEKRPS

Chain of MAGL (O35678 whole entry): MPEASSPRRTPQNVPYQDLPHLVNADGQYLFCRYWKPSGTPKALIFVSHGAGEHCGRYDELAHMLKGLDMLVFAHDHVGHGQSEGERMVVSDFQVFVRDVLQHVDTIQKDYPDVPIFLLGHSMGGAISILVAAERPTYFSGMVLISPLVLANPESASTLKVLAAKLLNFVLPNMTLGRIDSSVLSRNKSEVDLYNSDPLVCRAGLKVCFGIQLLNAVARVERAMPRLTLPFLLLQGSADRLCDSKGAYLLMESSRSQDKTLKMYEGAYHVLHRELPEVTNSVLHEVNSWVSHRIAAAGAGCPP

Consider `CC(=O)N(C)c1cnn(C(=O)N2CC3(CCN(Cc4ccc(C(F)(F)F)cc4)CC3)C2)c1` [Example 20, N-methyl-N-(1-(7-(4-(trifluoromethyl)benzyl)-2,7-diazaspiro[3.5]nonane-2-carbonyl)-1H-pyrazol-4-yl)acetamide], for which the inhibition at 1 µM is 25 to 50% on MAGL and 50 to 75% at FAAH.

Regarding `CC(=O)N(C)c1cnn(C(=O)N2CC3(CCN(Cc4ccc(N5CCOCC5)cc4Cl)CC3)C2)c1` [Example 22, N-(1-(7-(2-chloro-4-morpholinobenzyl)-2,7-diazaspiro[3.5]nonane-2-carbonyl)-1H-pyrazol-4-yl)-N-methylacetamide], at MAGL, the IC50 lay in the range of 1000 to 10000 nM and the inhibition at 1 µM fell in the range of 25 to 50%. Also, at FAAH, the half-maximal inhibitory concentration (IC50) was in the range of 100 to 1000 nM and the inhibition at 1 µM is not below 75%.

`CC(=O)N(C)c1cnn(C(=O)N2CC3(CCN(Cc4ccc(N5CCOCC5)cc4C)CC3)C2)c1` [Example 23, N-methyl-N-(1-(7-(2-methyl-4-morpholinobenzyl)-2,7-diazaspiro[3.5]nonane-2-carbonyl)-1H-pyrazol-4-yl)acetamide]: the inhibition at 1 µM at MAGL and at FAAH was 25 to 50% each time.

`CC(=O)N(C)c1cnn(C(=O)N2CCC3(CC2)CN(Cc2ccc(Cl)c(Cl)c2)C3)c1` [Example 24, N-(1-(2-(3,4-dichlorobenzyl)-2,7-diazaspiro[3.5]nonane-7-carbonyl)-1H-pyrazol-4-yl)-N-methylacetamide]: at MAGL, the IC50 is not above 100 nM and the inhibition at 1 µM is not below 75%. For the same compound, on FAAH, the IC50 was not above 100 nM and the inhibition at 1 µM was not below 75%.

As for `CC(=O)N(C)c1cnn(C(=O)N2CCC3(CC2)CN(Cc2ccc(N4CCCC4)cc2)C3)c1` [Example 25, N-methyl-N-(1-(2-(4-(pyrrolidin-1-yl)benzyl)-2,7-diazaspiro[3.5]nonane-7-carbonyl)-1H-pyrazol-4-yl)acetamide], the inhibition at 1 µM on MAGL was not below 75%; on FAAH it was 50 to 75%.

As to `CC(=O)N(C)c1cnn(C(=O)N2CCC3(CC2)CN(Cc2ccc(C(F)(F)F)cc2)C3)c1` [Example 26, N-methyl-N-(1-(2-(4-(trifluoromethyl)benzyl)-2,7-diazaspiro[3.5]nonane-7-carbonyl)-1H-pyrazol-4-yl)acetamide], on MAGL, the IC50 is not above 100 nM and the inhibition at 1 µM was not below 75%. On FAAH, the IC50 was 100 to 1000 nM and the inhibition at 1 µM is not below 75%.

For the compound `CC(=O)N(C)c1cnn(C(=O)N2CCC3(CC2)CN(Cc2ccc(N4CCOCC4)cc2)C3)c1` [Example 27, N-methyl-N-(1-(2-(4-morpholinobenzyl)-2,7-diazaspiro[3.5]nonane-7-carbonyl)-1H-pyrazol-4-yl)acetamide], the results for the inhibition at 1 µM on MAGL and at FAAH were not below 75% and 0 to 25%, respectively.

Take `CC(=O)N(C)c1cnn(C(=O)N2CCC3(CC2)CN(Cc2ccc(N4CCOCC4)cc2Cl)C3)c1` [Example 28, N-(1-(2-(2-chloro-4-morpholinobenzyl)-2,7-diazaspiro[3.5]nonane-7-carbonyl)-1H-pyrazol-4-yl)-N-methylacetamide]: the inhibition at 1 µM on MAGL and on FAAH was not below 75% in each case.

Take `CC(=O)N(C)c1cnn(C(=O)N2CCC3(CC2)CN(Cc2ccc(N4CCOCC4)cc2C)C3)c1` [Example 29, N-methyl-N-(1-(2-(2-methyl-4-morpholinobenzyl)-2,7-diazaspiro[3.5]nonane-7-carbonyl)-1H-pyrazol-4-yl)acetamide]: the results for the inhibition at 1 µM on MAGL and at FAAH were not below 75% and 25 to 50%, respectively.

For `CC(=O)N(C)c1cnn(C(=O)N2CCC3(CC2)CN(Cc2cccc(N4CCCC4)c2)C3)c1` [Example 30, N-methyl-N-(1-(2-(3-(pyrrolidin-1-yl)benzyl)-2,7-diazaspiro[3.5]nonane-7-carbonyl)-1H-pyrazol-4-yl)acetamide], the inhibition at 1 µM at MAGL and at FAAH was not below 75% each time.

As for `CC(=O)N(C)c1cnn(C(=O)N2CCC3(CC2)CN(Cc2ccc(F)cc2)C3)c1` [Example 31, N-(1-(2-(4-fluorobenzyl)-2,7-diazaspiro[3.5]nonane-7-carbonyl)-1H-pyrazol-4-yl)-N-methylacetamide], the inhibition at 1 µM is not below 75% at MAGL and 25 to 50% at FAAH.

For `CC(=O)N(C)c1cnn(C(=O)N2CCC3(CC2)CN(Cc2ccc(C)cc2)C3)c1` [Example 32, N-methyl-N-(1-(2-(4-methylbenzyl)-2,7-diazaspiro[3.5]nonane-7-carbonyl)-1H-pyrazol-4-yl)acetamide], the results for the inhibition at 1 µM on MAGL and on FAAH were not below 75% and 25 to 50%, respectively.

Consider `COc1ccc(CN2CC3(CCN(C(=O)n4cc(N(C)C(C)=O)cn4)CC3)C2)cc1` [Example 33, N-(1-(2-(4-methoxybenzyl)-2,7-diazaspiro[3.5]nonane-7-carbonyl)-1H-pyrazol-4-yl)-N-methylacetamide], for which the inhibition at 1 µM on MAGL is 50 to 75%; on FAAH, 25 to 50%.

As for `CC(=O)N(C)c1cnn(C(=O)N2CCC3(CC2)CN(Cc2cccc(Cl)c2)C3)c1` [Example 34, N-(1-(2-(3-chlorobenzyl)-2,7-diazaspiro[3.5]nonane-7-carbonyl)-1H-pyrazol-4-yl)-N-methylacetamide], on MAGL, the IC50 is not above 100 nM and the inhibition at 1 µM is not below 75%. In addition, on FAAH, the IC50 is not above 100 nM and the inhibition at 1 µM was not below 75%.

For `CC(=O)N(C)c1cnn(C(=O)N2CCC3(CC2)CN(Cc2cccc(F)c2)C3)c1` [Example 35, N-(1-(2-(3-fluorobenzyl)-2,7-diazaspiro[3.5]nonane-7-carbonyl)-1H-pyrazol-4-yl)-N-methylacetamide], the inhibition at 1 µM at MAGL and at FAAH was not below 75% in each case.

With `CC(=O)N(C)c1cnn(C(=O)N2CCC3(CC2)CN(Cc2cccc(C)c2)C3)c1` [Example 36, N-methyl-N-(1-(2-(3-methylbenzyl)-2,7-diazaspiro[3.5]nonane-7-carbonyl)-1H-pyrazol-4-yl)acetamide], the inhibition at 1 µM on MAGL and at FAAH was not below 75% in each case.

In the case of `COc1cccc(CN2CC3(CCN(C(=O)n4cc(N(C)C(C)=O)cn4)CC3)C2)c1` [Example 37, N-(1-(2-(3-methoxybenzyl)-2,7-diazaspiro[3.5]nonane-7-carbonyl)-1H-pyrazol-4-yl)-N-methylacetamide], the inhibition at 1 µM at MAGL and at FAAH was 50 to 75% in each case.

For the compound `CC(=O)N(C)c1cnn(C(=O)N2CCC3(CC2)CN(Cc2cccc(C(F)(F)F)c2)C3)c1` [Example 38, N-methyl-N-(1-(2-(3-(trifluoromethyl)benzyl)-2,7-diazaspiro[3.5]nonane-7-carbonyl)-1H-pyrazol-4-yl)acetamide], the IC50 was not above 100 nM on MAGL and 100 to 1000 nM at FAAH. In addition, the inhibition at 1 µM at MAGL and on FAAH was not below 75% in each case.

With `CC(=O)N(C)c1cnn(C(=O)N2CCC3(CC2)CN(Cc2cccc(N4CCOCC4)c2)C3)c1` [Example 39, N-methyl-N-(1-(2-(3-morpholinobenzyl)-2,7-diazaspiro[3.5]nonane-7-carbonyl)-1H-pyrazol-4-yl)acetamide], the inhibition at 1 µM at MAGL is not below 75%; on FAAH, 25 to 50%.

A word on the IC50: it is the point on the concentration scale where inhibition reaches its midpoint. Low readings indicate greater potency, high ones weaker potency.
